# From patent publication US8481750B2 (Boehringer Ingelheim International GmbH, priority 2009, dated 2013)
# Target: LFA-1 binding to ICAM-1 (Homo sapiens, UniProt P05107+P20701)
# Assay: Inhibition of LFA-1 binding to ICAM-1 (LFA-1/Biotin-sICAM-1 AlphaScreen molecular assay)
# Settings: highest compound concentration 1 μM in 1% DMSO, 37° C., 90 minutes
# From the text: Assay to Determine Inhibition of LFA-1 Binding to ICAM-1
# This assay protocol is designed to study the direct antagonism, by a test compound, of the interaction of ICAM-1 with the Leukointegrin CD18/CD11a (LFA-1).
# The LFA-1/Biotin-sICAM-1 molecular assay measures the ability of test compounds to inhibit binding of LFA-1 to Biotinylated-sICAM using AlphaScreen technology (Ref: Wilson, J, Rossi, C P, Carboni, S, Fremaux, C, Perrin, D, Soto, C, Kosco-Vilbois, M, and Scheer, A: A Homogeneous 384-Well High-Throughput Binding Assay for a TNF Receptor Using Alphascreen Technology. J Biomol Screen 2003; 8:522-532) that uses TS2/4(anti-LFA-1)-custom conjugated AlphaLisa acceptor beads and streptavidin-coated donor beads from PerkinElmer. The assay was performed in white OptiPlates-384 in a volume of 60 μL using assay buffer (Dulbecco's PBS containing calcium and magnesium, 2 mM MgCl2, 0.1 mM PMSF, 0.1% BSA, pH 7.1). To each well, Biotin-sICAM was added followed by purified LFA-1 (in buffer of 50 mM triethylamine, 150 mM NaCl, 1% beta octylglucoside, 2 mM MgCl2 neutralized to pH with 1M Tris-HCl, pH 7.5). For compound testing, compound was added in 5 uL to the above in 25 uL. LFA-1 and Biotin-sICAM-1 were used at concentrations that would yield a signal to background ratio of 8-10. The highest concentration of compound was 1 μM in 1% DMSO. Positive controls were wells without compound containing LFA-1, while blanks were wells without both compound and LFA-1. Plates were mixed and incubated at 37° C. for 90 minutes. This was followed by addition of 15 μL/well TS2/4-congugated acceptor beads diluted in PBS containing 0.1% BSA for a final concentration of 10 μg/mL. The plates were mixed and incubated in the dark for 30 minutes at room temperature followed by addition of 15 μL/well streptavidin-coated donor beads diluted in PBS containing 0.1% BSA at a final concentration of 15 μg/mL. The plates were mixed and incubated in the dark for 60 minutes at room temperature and then read on an EnVision Multilabel Reader using AlphaScreen 384-well OptiPlate protocol.
# Sequence of LFA-1 binding to ICAM-1 (P20701 26-1170): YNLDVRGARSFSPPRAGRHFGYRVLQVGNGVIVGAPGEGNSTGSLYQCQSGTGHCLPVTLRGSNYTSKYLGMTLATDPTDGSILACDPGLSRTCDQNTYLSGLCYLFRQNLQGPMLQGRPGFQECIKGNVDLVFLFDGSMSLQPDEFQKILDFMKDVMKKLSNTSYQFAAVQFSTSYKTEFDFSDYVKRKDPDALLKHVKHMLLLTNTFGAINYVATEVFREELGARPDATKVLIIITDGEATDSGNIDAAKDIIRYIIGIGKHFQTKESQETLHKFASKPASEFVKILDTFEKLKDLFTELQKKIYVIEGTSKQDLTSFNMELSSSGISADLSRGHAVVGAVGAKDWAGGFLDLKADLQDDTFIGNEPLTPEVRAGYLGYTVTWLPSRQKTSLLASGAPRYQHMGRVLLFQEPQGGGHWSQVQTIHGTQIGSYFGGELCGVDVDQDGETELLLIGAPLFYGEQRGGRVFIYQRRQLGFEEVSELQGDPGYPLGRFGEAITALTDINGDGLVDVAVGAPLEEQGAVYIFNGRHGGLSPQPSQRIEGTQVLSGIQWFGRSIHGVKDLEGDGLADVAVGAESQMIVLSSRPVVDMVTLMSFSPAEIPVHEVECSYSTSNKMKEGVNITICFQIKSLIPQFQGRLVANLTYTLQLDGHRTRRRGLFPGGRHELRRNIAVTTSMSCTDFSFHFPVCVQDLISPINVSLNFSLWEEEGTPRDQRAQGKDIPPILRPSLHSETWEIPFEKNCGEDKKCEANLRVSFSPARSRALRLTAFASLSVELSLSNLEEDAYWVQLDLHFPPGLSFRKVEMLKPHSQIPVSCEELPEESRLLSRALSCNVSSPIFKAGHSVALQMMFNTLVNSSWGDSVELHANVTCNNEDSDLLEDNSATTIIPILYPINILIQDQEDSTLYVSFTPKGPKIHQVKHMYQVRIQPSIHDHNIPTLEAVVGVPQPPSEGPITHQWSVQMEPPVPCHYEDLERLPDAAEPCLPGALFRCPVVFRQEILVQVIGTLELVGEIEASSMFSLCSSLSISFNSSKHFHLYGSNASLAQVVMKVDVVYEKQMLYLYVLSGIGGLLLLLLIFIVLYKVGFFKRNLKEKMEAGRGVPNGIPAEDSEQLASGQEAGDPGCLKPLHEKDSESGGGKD
# Sequence of LFA-1 binding to ICAM-1 (P05107 23-769): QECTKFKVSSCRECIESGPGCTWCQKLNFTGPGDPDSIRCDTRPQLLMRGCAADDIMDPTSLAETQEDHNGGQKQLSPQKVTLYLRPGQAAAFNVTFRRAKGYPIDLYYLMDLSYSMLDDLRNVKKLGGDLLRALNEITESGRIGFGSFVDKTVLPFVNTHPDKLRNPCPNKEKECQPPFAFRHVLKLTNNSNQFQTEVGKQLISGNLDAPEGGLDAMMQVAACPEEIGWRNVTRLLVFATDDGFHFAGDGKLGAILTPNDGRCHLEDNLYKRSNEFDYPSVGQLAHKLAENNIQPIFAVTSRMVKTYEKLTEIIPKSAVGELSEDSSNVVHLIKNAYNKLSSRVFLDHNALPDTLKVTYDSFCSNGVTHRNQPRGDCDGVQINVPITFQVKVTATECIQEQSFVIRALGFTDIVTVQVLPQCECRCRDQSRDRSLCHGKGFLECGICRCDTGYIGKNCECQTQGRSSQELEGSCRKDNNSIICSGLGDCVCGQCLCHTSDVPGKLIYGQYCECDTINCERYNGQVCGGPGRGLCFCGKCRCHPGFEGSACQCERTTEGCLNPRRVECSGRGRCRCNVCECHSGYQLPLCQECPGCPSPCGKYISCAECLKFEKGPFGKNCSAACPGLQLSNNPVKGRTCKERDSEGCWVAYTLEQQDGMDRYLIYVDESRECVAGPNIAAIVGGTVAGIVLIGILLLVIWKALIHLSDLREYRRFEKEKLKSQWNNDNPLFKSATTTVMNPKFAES
row,Compound,IC50 [nM]
1,C[C@@]1(Cc2ccc(C#N)cc2)C(=O)N(c2cc(Cl)cc(Cl)c2)c2ncc(C(=O)NC3(C(=O)NC4(c5cc(C(=O)N6CC(O)C6)ccn5)CC4)CC3)n21 [compound 87],0.98
2,C[C@@]1(Cc2ccc(C#N)cc2)C(=O)N(c2cc(Cl)cc(Cl)c2)c2ncc(C(=O)NC3(C(=O)NC4(c5cc(C(=O)N6CCN(S(C)(=O)=O)CC6)ccn5)CC4)CC3)n21 [compound 89],1.4
3,C[C@@]1(Cc2ccc(C#N)cc2)C(=O)N(c2cc(Cl)cc(Cl)c2)c2ncc(C(=O)NC3(C(=O)NC4(c5ccc(C(=O)N6CCC6)cn5)CC4)CC3)n21 [compound 90],0.29
4,C[C@@H](CO)NC(=O)c1ccc(C2(NC(=O)C3(NC(=O)c4cnc5n4[C@](C)(Cc4ccc(C#N)cc4)C(=O)N5c4cc(Cl)cc(Cl)c4)CC3)CC2)nc1 [compound 91],0.81
5,C[C@@]1(Cc2ccc(C#N)cc2)C(=O)N(c2cc(Cl)cc(Cl)c2)c2ncc(C(=O)NC3(C(=O)NC4(c5cccc(C(=O)NCc6ccccn6)n5)CC4)CC3)n21 [compound 92],1.3
6,C[C@@]1(Cc2ccc(C#N)cc2)C(=O)N(c2cc(Cl)cc(Cl)c2)c2ncc(C(=O)NC3(C(=O)NC4(c5ccc(C(=O)NCCc6ccccn6)cn5)CC4)CC3)n21 [compound 93],0.62
7,C[C@@]1(Cc2ccc(OC(F)(F)F)cc2)C(=O)N(c2cc(Cl)cc(Cl)c2)c2ncc(C(=O)NC3(C(=O)NC4(c5ccc(C(N)=O)cn5)CC4)CC3)n21 [compound 94],1.5
8,C[C@@]1(Cc2ccc(C#N)cc2)C(=O)N(c2cc(Cl)cc(Cl)c2)c2ncc(C(=O)NC3(C(=O)NC4(c5cc(C(=O)NCCc6cccnc6)ccn5)CC4)CC3)n21 [compound 95],1
9,C[C@@]1(Cc2ccc(C#N)cc2)C(=O)N(c2cc(Cl)cc(Cl)c2)c2ncc(C(=O)NC3(C(=O)NC4(c5cc(C(=O)NCC(O)CO)ccn5)CC4)CC3)n21 (some centres unmarked) [compound 96],0.74
10,C[C@@]1(Cc2ccc(C#N)cc2)C(=O)N(c2cc(Cl)cc(Cl)c2)c2ncc(C(=O)NC3(C(=O)NC4(c5cc(C(=O)N6CCNCC6)ccn5)CC4)CC3)n21 [compound 97],1
11,C[C@@]1(Cc2ccc(C#N)cc2)C(=O)N(c2cc(Cl)cc(Cl)c2)c2ncc(C(=O)NC3(C(=O)NC4(c5cccc(C(N)=O)n5)CC4)CC3)n21 [compound 98],1.1
12,C[C@H](O)CNC(=O)c1ccc(C2(NC(=O)C3(NC(=O)c4cnc5n4[C@](C)(Cc4ccc(C#N)cc4)C(=O)N5c4cc(Cl)cc(Cl)c4)CC3)CC2)nc1 [compound 99],0.52
13,COCCNC(=O)c1ccnc(C2(NC(=O)C3(NC(=O)c4cnc5n4[C@](C)(Cc4ccc(C#N)cc4)C(=O)N5c4cc(Cl)cc(Cl)c4)CC3)CC2)c1 [compound 100],0.9
14,C[C@@]1(Cc2ccc(C#N)cc2)C(=O)N(c2cc(Cl)cc(Cl)c2)c2ncc(C(=O)NC3(C(=O)NC4(c5ccc(C(=O)N6CCCC(C(N)=O)C6)cn5)CC4)CC3)n21 (some centres unmarked) [compound 101],0.42
15,C[C@@H](NC(=O)c1ccc(C2(NC(=O)C3(NC(=O)c4cnc5n4[C@](C)(Cc4ccc(C#N)cc4)C(=O)N5c4cc(Cl)cc(Cl)c4)CC3)CC2)nc1)C(N)=O [compound 102],0.37
16,C[C@@]1(Cc2ccc(C#N)cc2)C(=O)N(c2cc(Cl)cc(Cl)c2)c2ncc(C(=O)NC3(C(=O)NC4(c5cc(C(=O)N6CC[C@H](O)C6)ccn5)CC4)CC3)n21 [compound 103],0.75
17,C[C@@]1(Cc2ccc(C#N)cc2)C(=O)N(c2cc(Cl)cc(Cl)c2)c2ncc(C(=O)NC3(C(=O)NC4(c5cccc(C(=O)N6CCC6)n5)CC4)CC3)n21 [compound 104],2.3
18,CC(C)(CO)NC(=O)c1ccnc(C2(NC(=O)C3(NC(=O)c4cnc5n4[C@](C)(Cc4ccc(C#N)cc4)C(=O)N5c4cc(Cl)cc(Cl)c4)CC3)CC2)c1 [compound 105],0.65
19,CN(C)CCNC(=O)c1ccc(C2(NC(=O)C3(NC(=O)c4cnc5n4[C@](C)(Cc4ccc(C#N)cc4)C(=O)N5c4cc(Cl)cc(Cl)c4)CC3)CC2)nc1 [compound 106],0.82
20,C[C@@]1(Cc2ccc(C#N)cc2)C(=O)N(c2cc(Cl)cc(Cl)c2)c2ncc(C(=O)NC3(C(=O)NC4(c5cc(C(=O)NCCC(N)=O)ccn5)CC4)CC3)n21 [compound 107],0.3
21,CC(C)(NC(=O)c1ccnc(C2(NC(=O)C3(NC(=O)c4cnc5n4[C@](C)(Cc4ccc(C#N)cc4)C(=O)N5c4cc(Cl)cc(Cl)c4)CC3)CC2)c1)c1ccccc1 [compound 108],3
22,C[C@@]1(Cc2ccc(C#N)cc2)C(=O)N(c2cc(Cl)cc(Cl)c2)c2ncc(C(=O)NC3(C(=O)NC4(c5ccc(C(=O)NCCn6ccnc6)cn5)CC4)CC3)n21 [compound 109],0.41
23,C[C@@]1(Cc2ccc(C#N)cc2)C(=O)N(c2cc(Cl)cc(Cl)c2)c2ncc(C(=O)NC3(C(=O)NC4(c5cc(C(=O)N6CCCCC6)ccn5)CC4)CC3)n21 [compound 110],3.4
24,CN(C)C1CCN(C(=O)c2cccc(C3(NC(=O)C4(NC(=O)c5cnc6n5[C@](C)(Cc5ccc(C#N)cc5)C(=O)N6c5cc(Cl)cc(Cl)c5)CC4)CC3)n2)C1 (some centres unmarked) [compound 111],2.5
25,C[C@@]1(Cc2ccc(C#N)cc2)C(=O)N(c2cc(Cl)cc(Cl)c2)c2ncc(C(=O)NC3(C(=O)NC4(c5ccc(C(=O)NCCC(N)=O)cn5)CC4)CC3)n21 [compound 112],0.28
26,CC(=O)N1CCN(C(=O)c2ccnc(C3(NC(=O)C4(NC(=O)c5cnc6n5[C@](C)(Cc5ccc(C#N)cc5)C(=O)N6c5cc(Cl)cc(Cl)c5)CC4)CC3)c2)CC1 [compound 113],1.3
27,C[C@@]1(Cc2ccc(C#N)cc2)C(=O)N(c2cc(Cl)cc(Cl)c2)c2ncc(C(=O)NC3(C(=O)NC4(c5cc(C(=O)NC6CCC6)ccn5)CC4)CC3)n21 [compound 114],0.84
28,C[C@@]1(Cc2ccc(C#N)cc2)C(=O)N(c2cc(Cl)cc(Cl)c2)c2ncc(C(=O)NC3(C(=O)NC4(c5cc(C(=O)N6CCC[C@@H]6C(N)=O)ccn5)CC4)CC3)n21 [compound 115],0.33

# The remaining lines, values ahead:
row,IC50 [nM],Compound
1,0.75,CC(=O)N(C)C1CCN(C(=O)c2ccc(C3(NC(=O)C4(NC(=O)c5cnc6n5[C@](C)(Cc5ccc(C#N)cc5)C(=O)N6c5cc(Cl)cc(Cl)c5)CC4)CC3)nc2)C1 (some centres unmarked) [compound 116]
2,0.37,CC(C)(O)CNC(=O)c1ccc(C2(NC(=O)C3(NC(=O)c4cnc5n4[C@](C)(Cc4ccc(C#N)cc4)C(=O)N5c4cc(Cl)cc(Cl)c4)CC3)CC2)nc1 [compound 117]
3,33,C[C@@H](NC(=O)c1cccc(C2(NC(=O)C3(NC(=O)c4cnc5n4[C@](C)(Cc4ccc(C#N)cc4)C(=O)N5c4cc(Cl)cc(Cl)c4)CC3)CC2)n1)c1ccccc1 [compound 118]
4,0.72,C[C@@]1(Cc2ccc(C#N)cc2)C(=O)N(c2cc(Cl)cc(Cl)c2)c2ncc(C(=O)NC3(C(=O)NC4(c5ccc(C(=O)N6CCCC6)cn5)CC4)CC3)n21 [compound 119]
5,0.75,CC(CO)NC(=O)c1ccnc(C2(NC(=O)C3(NC(=O)c4cnc5n4[C@](C)(Cc4ccc(C#N)cc4)C(=O)N5c4cc(Cl)cc(Cl)c4)CC3)CC2)c1 (some centres unmarked) [compound 120]
6,0.37,CC(=O)NCCNC(=O)c1ccc(C2(NC(=O)C3(NC(=O)c4cnc5n4[C@](C)(Cc4ccc(C#N)cc4)C(=O)N5c4cc(Cl)cc(Cl)c4)CC3)CC2)nc1 [compound 121]
7,1.7,C[C@@]1(Cc2ccc(C#N)cc2)C(=O)N(c2cc(Cl)cc(Cl)c2)c2ncc(C(=O)NC3(C(=O)NC4(c5cc(C(=O)N6CCC[C@H]6C(N)=O)ccn5)CC4)CC3)n21 [compound 122]
8,0.34,C[C@@]1(Cc2ccc(C#N)cc2)C(=O)N(c2cc(Cl)cc(Cl)c2)c2ncc(C(=O)NC3(C(=O)NC4(c5cccc(C(=O)NC6CC6)n5)CC4)CC3)n21 [compound 123]
9,2.1,CN(C)C(=O)c1ccc(C2(NC(=O)C3(NC(=O)c4cnc5n4[C@](C)(Cc4ccc(C#N)cc4)C(=O)N5c4cc(Cl)cc(Cl)c4)CC3)CC2)nc1 [compound 124]
10,0.28,C[C@@]1(Cc2ccc(C#N)cc2)C(=O)N(c2cc(Cl)cc(Cl)c2)c2ncc(C(=O)NC3(C(=O)NC4(c5cccc(C(=O)N6CCCCC6CO)n5)CC4)CC3)n21 (some centres unmarked) [compound 125]
11,2.6,C[C@@]1(Cc2ccc(C#N)cc2)C(=O)N(c2cc(Cl)cc(Cl)c2)c2ncc(C(=O)NC3(C(=O)NC4(c5ccc(C(=O)NC6CC6)cn5)CC4)CC3)n21 [compound 126]
12,0.5,C[C@@]1(Cc2ccc(C#N)cc2)C(=O)N(c2cc(Cl)cc(Cl)c2)c2ncc(C(=O)NC3(C(=O)NC4(c5cccc(C(=O)NCC(N)=O)n5)CC4)CC3)n21 [compound 127]
13,0.47,C[C@@H](O)CNC(=O)c1ccc(C2(NC(=O)C3(NC(=O)c4cnc5n4[C@](C)(Cc4ccc(C#N)cc4)C(=O)N5c4cc(Cl)cc(Cl)c4)CC3)CC2)nc1 [compound 128]
